≈ marks a conversion by molar mass, not a printed value.
What was measured:
Assay type in all cases: functional
Staphylococcus aureus [1] = assay: Antibacterial activity against Staphylococcus aureus incubated for 20 hrs by microbroth dilution method
Escherichia coli = assay: Antibacterial activity against Escherichia coli incubated for 20 hrs by microbroth dilution method
Bacillus subtilis = assay: Antibacterial activity against Bacillus subtilis incubated for 20 hrs by microbroth dilution method
Staphylococcus aureus [2] = assay: Antibacterial activity against methicillin-resistant Staphylococcus aureus incubated for 20 hrs by microbroth dilution method

Compound | MIC (Staphylococcus aureus [1]) [µg/mL] | MIC (Escherichia coli) [µg/mL] | MIC (Bacillus subtilis) [µg/mL] | MIC (Staphylococcus aureus [2]) [µg/mL]
Fc1ccc2c(c1)[nH]c1cc(F)cc(F)c12 | 1.56 (≈ 7.05 µM) | 25 (≈ 113 µM) | 3.12 (≈ 14.1 µM) | 12.5 (≈ 56.5 µM)
CCc1ccc2[nH]c3c(C)ccc(F)c3c2c1 | 3.12 (≈ 13.7 µM) | – | 3.12 (≈ 13.7 µM) | 3.12 (≈ 13.7 µM)
Fc1cc(F)c2c(c1)[nH]c1ccccc12 | 25 (≈ 123 µM) | 25 (≈ 123 µM) | 6.25 (≈ 30.8 µM) | 12.5 (≈ 61.5 µM)
Fc1ccc2[nH]c3c(F)cc(F)c(F)c3c2c1 | 1.56 (≈ 6.52 µM) | – | 3.12 (≈ 13.1 µM) | 6.25 (≈ 26.1 µM)
Fc1cc(F)c2[nH]c3cc(C(F)(F)F)ccc3c2c1F | 0.78 (≈ 2.7 µM) | – | 0.78 (≈ 2.7 µM) | 3.12 (≈ 10.8 µM)
Cc1ccc(F)c2c1[nH]c1ccccc12 | 50 (≈ 251 µM) | – | 6.25 (≈ 31.4 µM) | 12.5 (≈ 62.7 µM)
CCc1ccc2[nH]c3cc(F)cc(F)c3c2c1 | 1.56 (≈ 6.75 µM) | – | 3.12 (≈ 13.5 µM) | 3.12 (≈ 13.5 µM)
Fc1ccc2c(c1)[nH]c1c(F)cc(F)c(F)c12 | 3.12 (≈ 13.1 µM) | – | 3.12 (≈ 13.1 µM) | 6.25 (≈ 26.1 µM)
CCc1ccc2[nH]c3c(F)cc(F)c(F)c3c2c1 | 3.12 (≈ 12.5 µM) | – | 3.12 (≈ 12.5 µM) | 3.12 (≈ 12.5 µM)
Cc1ccc2[nH]c3cc(F)cc(F)c3c2c1 | 100 (≈ 460 µM) | – | 3.12 (≈ 14.4 µM) | 3.12 (≈ 14.4 µM)
Cc1ccc2c(c1)[nH]c1c(F)cc(F)c(F)c12 | 6.25 (≈ 26.6 µM) | – | 3.12 (≈ 13.3 µM) | 6.25 (≈ 26.6 µM)
Cc1ccc2[nH]c3c(C)ccc(F)c3c2c1 | 6.25 (≈ 29.3 µM) | – | 6.25 (≈ 29.3 µM) | 6.25 (≈ 29.3 µM)
Fc1cc(F)c2c(c1)[nH]c1ccc(F)cc12 | 1.56 (≈ 7.05 µM) | 12.5 (≈ 56.5 µM) | 3.12 (≈ 14.1 µM) | 3.12 (≈ 14.1 µM)
Cc1ccc(F)c2c1[nH]c1cc(C(F)(F)F)ccc12 | 1.56 (≈ 5.84 µM) | – | 3.12 (≈ 11.7 µM) | 3.12 (≈ 11.7 µM)
Cc1ccc2[nH]c3c(F)cc(F)c(F)c3c2c1 | 6.25 (≈ 26.6 µM) | – | 3.12 (≈ 13.3 µM) | 6.25 (≈ 26.6 µM)
Cc1ccc(F)c2c1[nH]c1cc(F)ccc12 | 50 (≈ 230 µM) | – | 6.25 (≈ 28.8 µM) | 6.26 (≈ 28.8 µM)
Fc1cc(F)c2c(c1)[nH]c1cc(C(F)(F)F)ccc12 | 0.39 (≈ 1.44 µM) | – | 0.78 (≈ 2.88 µM) | 3.12 (≈ 11.5 µM)
Cc1ccc2c(c1)[nH]c1cc(F)cc(F)c12 | 3.12 (≈ 14.4 µM) | – | 3.12 (≈ 14.4 µM) | 3.12 (≈ 14.4 µM)
Fc1cc(F)c2[nH]c3ccccc3c2c1F | 6.25 (≈ 28.3 µM) | – | 6.25 (≈ 28.3 µM) | 12.5 (≈ 56.5 µM)
CC1(C)S[C@@H]2[C@H](NC(=O)[C@H](N)c3ccccc3)C(=O)N2[C@H]1C(=O)O [AMPICILLIN] | 0.2 (≈ 0.572 µM) | 3.12 (≈ 8.94 µM) | < 0.2 | –
C[C@@H](O)[C@H]1C(=O)N2C(C(=O)O)=C(S[C@@H]3CN[C@H](C(=O)N(C)C)C3)[C@H](C)[C@H]12 [MEROPENEM] | 0.78 (≈ 2.03 µM) | 0.05 (≈ 0.13 µM) | 3.12 (≈ 8.15 µM) | 0.78 (≈ 2.03 µM)
CN[C@@H]1[C@H](O[C@H]2[C@H](O[C@H]3[C@H](O)[C@@H](O)[C@H](N=C(N)N)[C@@H](O)[C@@H]3N=C(N)N)O[C@@H](C)[C@]2(O)C=O)O[C@@H](CO)[C@H](O)[C@H]1O [STREPTOMYCIN] | 3.12 (≈ 5.37 µM) | 3.12 (≈ 5.37 µM) | 3.21 (≈ 5.53 µM) | 3.12 (≈ 5.37 µM)
